The source of these data is patent publication US11964943B2, “3,5-diarylidenyl-n-substituted-piperid-4-one-derived inhibitors of Stat3 pathway activity and uses thereof” (priority 2017, dated 2024).

Series [1] has as its system HCT116-oxaliplatin resistant cells. The series is described as follows: Colony formation assay with oxaliplatin. Particulars: 10 days. It is filed as cell-based. The procedure:
HCT116-oxaliplatin res cells were seeded at 2000 cells/well in 6-well plates and allowed to adhere overnight. The next day, oxaliplatin and IE-8 were added simultaneously. First, the specific amount of cells solution was removed from each well and afterwards the same volume of the appropriate drug dilution was added to achieve the right concentration. IE-8 was diluted in DMA. Cells were also treated with Oxaliplatin and IE-8 alone. The plates were left the incubator and the cells were allowed to grow colonies for 10 days. After 10 days the entire cell solution was removed from each well, which was subsequently washed with 500 μl of PBS. 1 ml of cold 100% methanol was added and the plates were incubated for 30 minutes at 4 C. After a second wash, the cells were stained with 1 ml of […] staining dye for 2-3 minutes, rinsed with water, allowed to dry overnight and the colonies were quantified using a gel imaging system (Fusion Fx7) and its in-built colony counter software.

Series [2] concerns HCT116-oxaliplatin resistant xenografts. The series is described as follows: In vivo survival experiment. Also noted: species or system mice. The procedure:
Six- to eight-week old female Balb/c mice (weighing about 20 g) were purchased from the Harlan Laboratories, San Pietro al Natisone, Italy. The animals were kept in a pathogen-free environment, and every procedure was done in a laminar airflow cabinet. HCT16-oxaliplatin resistant cells (5×10^5) were injected subcutaneously into the right flank of female Balb/c mice. The animals were treated with IE-8 intraperitoneally (30 mg kg-1; solutions freshly prepared in the standard mixture of 1% DMSO, Cremophor, Ethanol and H2O) on days 10, 13 and 17. The animals were controlled for distress development every day. […] Control and treatment group n=4.

In series [3] the test system is cisplatin-produced DNA interstrand crosslinks. The series can be described thus: Modified single cell gel electrophoresis (comet) assay. It is filed as cell-based. As for the experimental part:
The following procedure for the modified single-cell gel electrophoresis (comet) assay [Hartley. J. M., et al. Drug-DNA Interact. Protoc. Methods Mol. Biol. 2010, 613, 267] was applied to measure DNA interstrand crosslinking (ICL) induced by platinum drug in DU145 and A549 cells. Exponentially growing cells were treated for 1 h with different concentrations of cisplatin and collected after 0, 9, 24 and 48 h. All procedures were carried out on ice. Cells were diluted to a final concentration of 2.5×10^4 cells/ml and irradiated with X-ray (15 Gy) in order to deliver a fixed number of random DNA strand breaks (except for the untreated unirradiated control). Cells were embedded in 1% agarose on a precoated microscope slide, and each sample was prepared in duplicate. […] Images were captured using an on-line CCD camera and analysed using the Komet Analysis software 4.02 (Andor Technology, Belfast, UK). […] 25 cells were analysed. The tail moment for each image was calculated as the product of the percentage of DNA in the comet tail and the distance between the means of the head and tail distributions (Olive P. L., et al, Radiat Res 122, 86). DNA ICL after drug treatment was expressed as the percentage decrease in tail moment compared with irradiated controls calculated by the formula: % Decrease in tail moment=[1−(TMdi−TMcu/Tci−TMcu)]×100 […]

Series [4] deals with A-10 smooth muscle cells. The series is described as follows: Microtubule disruption by indirect immunofluorescence. Particulars: 30 μM. The class given is cell-based.

With `COc1cc(/C=C2\CN(c3ccccc3)C/C(=C\c3cc(OC)c(OC)c(OC)c3)C2=O)cc(OC)c1OC` [IE-8, 3,5-Di(3,4,5-trimethoxybenzylidene)-1-phenylpiperidin-4-one], the number of colonies result in series [1] (0.1 μM IE-8 + 1 μM oxaliplatin) was “about 60”; in series [1] (0.1 μM IE-8 + 2 μM oxaliplatin), “Less than 25”. Moreover, the body weight loss result in series [2] (30 mg/kg intraperitoneally on days 10, 13 and 17) is recorded as “No body weight loss was observed”. Besides, the “prolongation of survival versus vehicle” value in series [2] (30 mg/kg intraperitoneally on days 10, 13 and 17, n=4) is listed as “about 20 days”. For the same molecule, in series [3] (DU145, IE-8 pretreatment then cisplatin 1 h), the “persistence of DNA ICLs in combination treatment” value is listed as “up to 48 h”. The “unhooking (repair) of cisplatin-produced DNA ICLs” value in series [3] (DU145 and A549 cells, IE-8 pretreatment overnight or 1 h before cisplatin) was “impairs the ‘unhooking’ of the cisplatin-produced ICLs”.
For the molecule “3,5-Di(3,4,5-trimethoxybenzylidene)-1-phenylpiperidin-4-one [IE-8]”, the effect on microtubules result in series [4] was “did not show any effect on the microtubules”.
